Bridge positions count the residues as written; N and C are the ends. Square brackets hold non-standard residues; d marks the D form. Peptide text beside a SMILES is read from it. I, II: the chains in the order shown. * marks the point of attachment. Cbz = O=C(OCc1ccccc1)*; Ahx = NCCCCCC(=O)O
How the values were obtained:
Aβ42 = molecular target: T1, Aβ42 (Homo sapiens, UniProt P05067); experiment: ELISA binding between Aβ and LME peptides; details: Aβ42, n = 3, read-out: apparent Kd
T1 construct: purchased Peptide Institute
T1 sequence (P05067 672-713 limits assumed): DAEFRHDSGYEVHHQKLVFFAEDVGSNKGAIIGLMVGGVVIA
Method: (§1) The indicated amounts of LME-tet (8.3 µM) or LME-mono (33 µM) were applied onto each well of a regular 96-well ELISA plate (Thermo Fisher Scientific) and incubated overnight for 24 h. After blocking, the plate was incubated with various concentrations of Aβ1–28, Aβ40, or Aβ42 (Peptide Institute) for 2 h at room temperature. Bound Aβ was detected using mouse monoclonal anti-human Aβ antibody 82E1 (Immuno-Biological Laboratories Co., Ltd.) and HRP-conjugated horse anti-mouse IgG antibody (Cell Signaling Technology).

Aβ40 = molecular target: T2, Aβ40 (Homo sapiens, UniProt P05067); experiment: ELISA binding between Aβ and LME peptides; details: Aβ40, n = 4, read-out: apparent Kd
T2 construct: purchased Peptide Institute
T2 sequence (P05067 672-711 limits assumed): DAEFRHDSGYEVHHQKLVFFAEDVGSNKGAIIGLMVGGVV
Method: as §1

7WD10 cells = experiment: Incorporation of biotinylated tetravalent peptides into 7WD10 cells, confocal microscopy; format: cell-based, Chinese Hamster; details: biotinylated peptide 50 µM, 37 °C, 1 h, Alexa Fluor 488-streptavidin
Method: Supplementary Fig. 10: Efficient incorporation of […] into cells.
7WD10 cells were cultured at 37° C for 1 h in the presence of biotinylated LME-tet or PME-tet
(50 µM). Biotinylated peptide was detected using Alexa Fluor 488-conjugated streptavidin.
Fluorescence images were obtained using confocal laser scanning microscopy to assess the
incorporation of tetravalent peptides into cells. The scale bars indicate 10 µm.

[1] = tested on: β-cleavage of St6gal1 in 7WD10-NotchΔE-St6gal1 cells; experiment: β-Secretase assay in cells (St6gal1 cleavage); format: cell-based, Chinese Hamster; details: 48 h, culture medium, western blot; β-secretase inhibitor II 10 µM
Method: (§2) 7WD10 cells were treated with vehicle control or LME-tet at the indicated concentrations for 48 h. Cell lysates were analyzed by western blot. b Effect of LME-tet on production of extracellular sAPPα and sAPPβ Schematic showing α- and β-cleavage sites (top). 7WD10 cells were treated as in (a) and sAPPα and sAPPβ in culture medium were analyzed by western blot (bottom left and right panels, respectively). a, b APP and sAPPα were detected using anti-APP antibody 6E10, and sAPPβ was detected using anti-sAPPβ antibody. Data are graphed as the percentage of the control value, showing the mean ± SE; n = 3–4. Significance vs. vehicle was calculated by ANOVA, followed by one-sided Dunnett’s test; *P < 0.05, **P < 0.01, ***P < 0.001. c Effect of LME-tet on β-cleavage of β-galactoside α-2,6- sialyltransferase 1 (St6gal1) and γ-cleavage of NotchΔE. 7WD10-NotchΔE-St6gal1 cells were treated with LME-tet at the indicated concentrations and β-secretase inhibitor II (βi; 10 µM) for 48 h; culture medium was analyzed by western blot using anti-St6gal1 antibody (left panel). 7WD10-NotchΔE cells were treated with LME-tet at the indicated concentrations and γ-secretase inhibitor DAPT (γi; 10 µM) for 48 h; cell lysates were analyzed by western blot using anti-Myc antibody (right panel). […] Aβ33-FLAG (left) and Aβ (right) were measured by western blot using anti-Aβ antibody 82E1. […]

[2] = tested on: γ-cleavage of NotchΔE in 7WD10-NotchΔE cells; experiment: γ-Secretase assay in cells (NotchΔE cleavage); format: cell-based, Chinese Hamster; details: 48 h, cell lysates, western blot with anti-Myc antibody; DAPT 10 µM
Method: as §2

CSCC[C@H](NC(=O)[C@H](CCCNC(=N)N)NC(=O)[C@H](CC(C)C)NC(=O)[C@H](CCCCN)NC(=O)[C@@H]1CCCN1)C(=O)N[C@@H](CCCCN)C(=O)N[C@@H](CCC(=O)O)C(=O)NCCCCCC(=O)NCCCC[C@H](NC(=O)CCCCCNC(=O)[C@H](CCC(=O)O)NC(=O)[C@H](CCCCN)NC(=O)[C@H](CCSC)NC(=O)[C@H](CCCNC(=N)N)NC(=O)[C@H](CC(C)C)NC(=O)[C@H](CCCCN)NC(=O)[C@@H]1CCCN1)C(=O)NCCCC[C@H](NC(=O)[C@H](CCCCNC(=O)CCCCCNC(=O)[C@H](CCC(=O)O)NC(=O)[C@H](CCCCN)NC(=O)[C@H](CCSC)NC(=O)[C@H](CCCNC(=N)N)NC(=O)[C@H](CC(C)C)NC(=O)[C@H](CCCCN)NC(=O)[C@@H]1CCCN1)NC(=O)CCCCCNC(=O)[C@H](CCC(=O)O)NC(=O)[C@H](CCCCN)NC(=O)[C@H](CCSC)NC(=O)[C@H](CCCNC(=N)N)NC(=O)[C@H](CC(C)C)NC(=O)[C@H](CCCCN)NC(=O)[C@@H]1CCCN1)C(N)=O [LME-tet] (I: H-PKLRMKE[Ahx]KK-NH2 / II: H-PKLRMKE[Ahx]K / III: H-PKLRMKE[Ahx] / IV: H-PKLRMKE[Ahx]; amide I:9-IV:C, I:10-II:C, II:9-III:C)
Kd (Aβ42): 200 nM
Kd (Aβ40): 2700 nM
efficiency of incorporation into cells (7WD10 cells): much higher efficacy than PME-tet

CC(C)C[C@@H](C=O)NC(=O)[C@H](CC(C)C)NC(=O)[C@@H](NC(=O)OCc1ccccc1)C(C)C [β-secretase inhibitor II] (Cbz-Val-Leu-Leu-aldehyde)
production of extracellular St6gal1 fragment [1]: completely suppressed

C[C@H](NC(=O)Cc1cc(F)cc(F)c1)C(=O)N[C@H](C(=O)OC(C)(C)C)c1ccccc1 [DAPT]
production of NICD [2]: efficiently inhibits

From PMC10082830, “A tailored tetravalent peptide displays dual functions to inhibit amyloid β production and aggregation” (Communications Biology, 2023)
